Paper PMC8767159, “Multiparameter Optimization of Trypanocidal Cruzain Inhibitors With In Vivo Activity and Favorable Pharmacokinetics” (Frontiers in Pharmacology, 2022)

Experiments:
[1] = In vitro metabolic stability in human liver microsomes; type: in vitro ADME; settings: human, liver microsomes
How it was run: (§1)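 Compounds incubated at 37°C with mouse or human liver microsomes (0.25 mg/ml) in potassium phosphate buffer with NADPH; samples quenched in ACN/MeOH at 0, 5, 10, 15, 20 and 30 min. Parent remaining by LC-MS/MS relative to 0 min; T½ = ln(2)/k, CLint = k*1000/0.25 (μL/min/mg).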

[2] = In vitro metabolic stability in mouse liver microsomes; type: in vitro ADME; settings: mouse, liver microsomes
How it was run: as §1

[3] = Fraction unbound by equilibrium dialysis; type: in vitro ADME; settings: pH 7.4
How it was run: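 Test compounds at 1, 2, 20, 200, 2,000 and 5,000 nM in plasma, microsome suspension or buffer with 10% FCS, dialysed against 50 mM potassium phosphate pH 7.4 across a 12–14 kDa membrane, 37°C, 150 rpm, 4 h. Both sides quantified by LC-MS/MS against a standard curve; triplicates.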

[4] = Experimental distribution coefficient (eLogD) by LC retention time; type: physicochemical; settings: for chromatographic logD: C18 column (LC retention time); for eLogD: Table S5
Description: For the eLogD assays ([Waring, 2010]), each compound (5 μl) from a 5 mM stock solution was diluted in 245 μl of a solution containing buffers A (5% MeOH, 10 mM ammonium acetate, pH 7.4) and B (100% MeOH, pH 7.4) (50:50). Nine control compounds with known eLogD and column retention times (acyclovir, atenolol, antipyrine, fluconazole, metoprolol, carbamazepine, ketoconazole, tolnaftate, and amiodarone; eLogD values ranging from −1.86 to 6.1) were subjected to LC-MS/MS in triplicate before and after the analysis of the test compounds. Retention times were recorded for each control and test compound in a C18 column. The retention time of each control compound was plotted against the respective eLogD values described in the literature ([Lombardo et al., 2002]; [Lombardo et al., 2004]; [Alelyunas et al., 2010]). The resulting linear equation (y = mx + b) was used to calculate the eLogD values of the test compounds, in which x is the retention time in minutes and y is the eLogD value.

[5] = Table S5, CLint/fu, read-out: CLint_u (L/h/kg) Human (converted)
[6] = Table S5, read-out: CLint (L/h/kg) Human (converted)
[7] = Table S5, CLint/fu, read-out: CLint_u (L/h/kg) Mouse (converted)
[8] = Table S5, read-out: CLint (L/h/kg) Mouse (converted)
[9] = Table 5, CLint/fu, read-out: CLint_u (L/h/kg) human (converted)
[10] = Table 5, read-out: CLint (L/h/kg) human (converted)
[11] = Table 5, CLint/fu, read-out: CLint_u (L/h/kg) mouse (converted)
[12] = Table 5, read-out: CLint (L/h/kg) mouse (converted)
[13] = Table 5, fraction unbound used to correct CLint
[14] = Table 6, fraction unbound used to correct plasma clearance
[15] = Table S6, fraction unbound used to correct plasma clearance

Structure (SMILES) | CLint scaled at 5 µM [1, 5] [L/h/kg] | CLint scaled at 5 µM [1, 6] [L/h/kg] | CLint scaled at 5 µM [2, 7] [L/h/kg] | CLint scaled at 5 µM [2, 8] [L/h/kg] | fraction unbound at 4 h, 1 µM ([3]; Table S5, fraction unbound) | chromatographic logD ([4]; pH 7.4, Table S5) | chromatographic logD ([4]; pH 7.4, Table 3, pH 7.4) | eLogD [4] | CLint scaled at 5 µM [1, 9] [L/h/kg] | CLint scaled at 5 µM [1, 10] [L/h/kg] | CLint scaled at 5 µM [2, 11] [L/h/kg] | CLint scaled at 5 µM [2, 12] [L/h/kg] | fraction unbound at 4 h, 1 µM [3, 13] | fraction unbound at 4 h, 1 µM [3, 14] | chromatographic logD ([4]; pH 7.4, Table 5) | fraction unbound at 4 h, 1 µM [3, 15]
O=C(COc1ccccc1)NCCc1nc2ccccc2n1-c1ccccc1 [Compound 30] | 92.4 | 58.1 | 1130 | 713 | 0.63 | 4.04 |  |  |  |  |  |  |  |  |  | 
O=C(COc1ccccc1)NCCc1nc2ccccc2n1CCOc1ccccc1 [Compound 20] | 301 | 123 | 1200 | 489 | 0.41 |  | 4.24 | 4.24 |  |  |  |  |  |  |  | 
Nc1cccc(OCC(=O)NCCc2nc3ccccc3[nH]2)c1 [Compound 9] | 11.1 | 11 | 22.8 | 22.7 | 0.99 |  | 1.88 | 1.88 |  |  |  |  |  |  |  | 
Cc1ccccc1OCC(=O)NCCc1nc2ccccc2n1CCOc1ccccc1Br [Compound 22] | 3870 | 123 |  | 487 | 0.03 | 4.81 |  |  |  |  |  |  |  |  |  | 
O=C(COc1ccc2c(C(=O)O)cccc2c1)NCCc1nc2ccccc2[nH]1 [Compound 15] | < 1.5 | < 1.5 | 12.9 | 12.9 | 1 | 1.31 |  |  |  |  |  |  |  |  |  | 
O=C(COc1cccc(NC(=O)CCCO)c1)NCCc1nc2ccccc2[nH]1 [Compound 7] | < 1.5 |  | 8.19 | 8.19 | 1 | 2.23 |  |  |  |  |  |  |  |  |  | 
O=C(CCc1ccccc1Br)NCCc1nc2ccccc2[nH]1 [Compound 36] |  |  |  |  |  |  |  |  | 38.2 | 28.8 | 935 | 705 | 0.8 | 0.04 | 3.8 | 
O=C(COc1ccccc1)NCCc1nc2ccccc2[nH]1 [Compound 1] | < 1.5 | < 1.5 | 72.1 | 72.1 | 1 |  | 2.9 | 2.90 |  |  |  |  |  |  |  | 0.23
O=C(COc1ccccc1)NCCc1nc2ccccc2n1CCCOc1ccccc1 [Compound 24] | 524 | 142 | 1850 | 501 | 0.27 |  | 4.45 | 4.45 |  |  |  |  |  |  |  | 
O=C(COc1ccccc1)NCCc1nc2ccccc2n1CCOc1ccccc1Br [Compound 19] | 949 | 112 | 2580 | 305 | 0.12 | 4.5 |  |  |  |  |  |  |  |  |  | 
Cc1ccccc1OCC(=O)NCCc1nc2ccccc2[nH]1 [Compound 17] |  |  |  |  |  |  |  |  | 31.2 | 23.9 | 392 | 300 | 0.8 | 0.06 | 3.6 | 
O=C(Cn1ccnc1[N+](=O)[O-])NCc1ccccc1 [BZ, benznidazole, reference compound] | 1.5 | 1.5 | 4.43 | 4.43 |  |  | 0.84 | 0.84 | 1.5 | 1.5 | 4.4 | 4.4 | 1 | 0.99 | 0.8 | 
O=C(COc1ccc2cc(O)ccc2c1)NCCc1nc2ccccc2[nH]1 [Compound 10] | 8.15 | 6.66 | 32.3 | 26.4 | 0.82 |  | 3.17 | 3.17 |  |  |  |  |  |  |  | 0.34
O=C(COc1ccccc1[N+](=O)[O-])NCCc1nc2ccccc2[nH]1 [Compound 32] |  |  |  |  |  |  |  |  | 39.2 | 25.5 | 808 | 526 | 0.7 | 0.04 | 3.6 | 
O=C(COc1ccccc1Br)NCCc1nc2ccccc2[nH]1 [Compound 18] |  |  |  |  |  |  |  |  | 16 | 9.2 | 334 | 191 | 0.6 | 0.03 | 3.9 | 
O=C(COc1ccc2ccccc2c1)NCCc1nc2ccccc2[nH]1 [Compound 35] |  |  |  |  |  |  |  |  | 43.9 | 21.1 | 1170 | 565 | 0.5 | 0.02 | 3.9 | 
CC(=O)Nc1ccc(OCC(=O)NCCc2nc3ccccc3[nH]2)cc1 [Compound 2] | < 1.5 | < 1.5 | < 4.43 | < 4.43 | 1 |  | 1.92 | 1.92 |  |  |  |  |  |  |  | 0.49
O=C(COc1ccc2ccccc2c1Br)NCCc1nc2ccccc2[nH]1 [Compound 34] |  |  |  |  |  |  |  |  | 540 | 49.9 |  | 607 | 0.1 |  | 4.4 | 
Cn1c(CCNC(=O)COc2ccccc2)nc2ccccc21 [Compound 25] | 4.61 | 4.57 | 123 | 122 | 0.99 |  | 2.93 | 2.93 |  |  |  |  |  |  |  | 
O=C(COc1ccccc1)NCCc1nc2ccccc2n1CCOCc1ccccc1 [Compound 21] | 496 | 235 | 1790 | 847 | 0.47 | 4.24 |  |  |  |  |  |  |  |  |  | 
Cc1ccccc1OCC(=O)NCCc1nc2ccccc2o1 [Compound 37] |  |  |  |  |  |  |  |  | 26.9 | 22.9 | 874 | 745 | 0.9 | 0.05 | 3.9 | 
NC(=O)Cn1c(CCNC(=O)COc2ccccc2)nc2ccccc21 [Compound 28] | < 1.53 | < 1.5 | 5.43 | 5.34 | 0.98 |  | 2.16 | 2.16 |  |  |  |  |  |  |  | 0.18
O=C(COc1ccc(N2C(=O)CCC2=O)cc1)NCCc1nc2ccccc2[nH]1 [Compound 4] | < 1.51 | < 1.5 | 20.9 | 20.8 | 0.99 | 1.59 |  |  |  |  |  |  |  |  |  | 
